Like-named read-outs stand apart in the source and are kept apart here.
Columns and labels:
[1] = target: T1, human adenosine A2A receptor (Homo sapiens, UniProt P29274); assay: Human adenosine A2A receptor [3H]-SCH-58261 binding assay
T1 construct: expressed in transfected cells; host or cells: CHO cells, Semliki Forest virus expression system; membrane preparation

[2] = target: T2, HA1 adenosine receptor (Homo sapiens, UniProt P30542); assay: Human adenosine A1 receptor affinity (Ki hA1); assay type: binding
T2 sequence (P30542 1-326): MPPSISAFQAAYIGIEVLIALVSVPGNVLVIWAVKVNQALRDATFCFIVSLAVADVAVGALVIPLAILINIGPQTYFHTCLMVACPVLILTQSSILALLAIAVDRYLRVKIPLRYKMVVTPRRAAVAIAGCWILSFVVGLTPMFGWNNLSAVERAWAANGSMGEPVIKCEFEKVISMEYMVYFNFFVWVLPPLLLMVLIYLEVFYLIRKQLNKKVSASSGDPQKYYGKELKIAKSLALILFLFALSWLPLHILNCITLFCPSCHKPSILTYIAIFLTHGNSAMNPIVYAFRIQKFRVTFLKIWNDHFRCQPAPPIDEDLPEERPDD

[3] = affinity to human adenosine A2A receptor, read-out: Ki HA2A
[4] = calculated ratio of the affinity to the HA1 receptor to the HA2a receptor
[5] = affinity to human adenosine A1 receptor
[6] = recombinant human A2A in CHO cell membranes, [3H]-SCH-58261, Cheng-Prussoff, read-out: Ki hA2A

T1 sequence (P29274 whole entry): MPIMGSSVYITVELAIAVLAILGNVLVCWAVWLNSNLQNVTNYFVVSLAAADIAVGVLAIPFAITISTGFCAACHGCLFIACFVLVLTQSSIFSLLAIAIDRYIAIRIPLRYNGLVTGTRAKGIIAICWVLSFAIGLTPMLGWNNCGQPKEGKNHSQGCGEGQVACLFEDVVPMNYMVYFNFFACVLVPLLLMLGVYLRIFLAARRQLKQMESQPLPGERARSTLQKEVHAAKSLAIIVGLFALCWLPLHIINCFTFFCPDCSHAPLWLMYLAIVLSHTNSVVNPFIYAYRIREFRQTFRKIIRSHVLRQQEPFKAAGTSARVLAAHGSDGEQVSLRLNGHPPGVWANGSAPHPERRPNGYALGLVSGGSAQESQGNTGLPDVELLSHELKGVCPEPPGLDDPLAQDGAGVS

Structure (SMILES)	Ki [1, 3] [nM]	selectivity (A1/A2a) [1, 4]	Ki [2, 5] [nM]	selectivity (A1/A2a) ([1]; ratio KiHA1 divided by KiHA2A)	Ki [1, 6] [nM]	Ki [2] [nM]
Cc1ccc(-c2nc3cc(C(=O)N(C)Cc4ccccc4)cc(N)n3n2)s1 [Example 116, 5-Amino-2-(5-methyl-thiophen-2-yl)-[1,2,4]triazolo[1,5-a]pyridine-7-carboxylic acid benzyl-methyl-amide]	15.3	11.1	170			
Nc1cc(C(=O)N2CCCCC2)cc2nc(-c3ccccc3)nn12 [Example 151, (5-Amino-2-phenyl-[1,2,4]triazolo[1,5-a]pyridin-7-yl)-piperidin-1-yl-methanone]	85.5	10.8	928			
CCCCN(CCC)C(=O)c1cc(N)n2nc(-c3nccs3)nc2c1 [Example 334, 5-Amino-2-thiazol-2-yl-[1,2,4]triazolo[1,5-a]pyridine-7-carboxylic acid butyl-propyl-amide]	98	18.3	1790			
COc1ccc(-c2nc3cc(C(=O)NCCc4ccccc4Cl)cc(N)n3n2)s1 [Example 78, 5-Amino-2-(5-methoxy-thiophen-2-yl)-[1,2,4]triazolo[1,5-a]pyridine-7-carboxylic acid [2-(2-chloro-phenyl)-ethyl]-amide]	389	0.3	97.4			
CCCCN(CCC)C(=O)c1cc(N)n2nc(-c3ccccn3)nc2c1 [Example 427, 5-Amino-2-pyridin-2-yl-[1,2,4]triazolo[1,5-a]pyridine-7-carboxylic acid butyl-propyl-amide]				11.7	102	1190
Nc1cc(C(=O)NC2CCc3ccccc32)cc2nc(-c3ccoc3)nn12 (stereo not drawn) [Example 223, 5-Amino-2-furan-3-yl-[1,2,4]triazolo[1,5-a]pyridine-7-carboxylic acid indan-1-ylamide]	44.1	9.4	414			
NC(=O)C1CCN(C(=O)c2cc(N)n3nc(-c4ccc(Cl)o4)nc3c2)CC1 [Example 259, 1-[5-Amino-2-(5-chloro-furan-2-yl)-[1,2,4]triazolo[1,5-a]pyridine-7-carbonyl]-piperidine-4-carboxylic acid amide]	119	4.5	540			
COC[C@H]1CCCN1C(=O)c1cc(N)n2nc(-c3nccs3)nc2c1 [Example 401, (5-Amino-2-thiazol-2-yl-[1,2,4]triazolo[1,5-a]pyridin-7-yl)-(R-2-methoxymethyl-pyrrolidin-1-yl)-methanone]				66.4	51.9	3440
CCN(C)C(=O)c1cc(N)n2nc(-c3ccc(Cl)o3)nc2c1 [Example 250, 5-Amino-2-(5-chloro-furan-2-yl)-[1,2,4]triazolo[1,5-a]pyridine-7-carboxylic acid ethyl-methyl-amide]	19.1	24.0	459			
Nc1cc(C(=O)NCc2ccccc2Cl)cc2nc(-c3ccccn3)nn12 [Example 39, 5-Amino-2-pyridin-2-yl-[1,2,4]triazolo[1,5-a]pyridine-7-carboxylic acid 2-chloro-benzylamide]	16.8	4.2	69.8			
Nc1cc(C(=O)N2CCCCCC2)cc2nc(-c3ccccn3)nn12 [Example 417, (5-Amino-2-pyridin-2-yl-[1,2,4]triazolo[1,5-a]pyridin-7-yl)-azepan-1-yl-methanone]				31.5	16.9	532
Nc1cc(C(=O)N2CCCCCCC2)cc2nc(-c3ccc(Br)o3)nn12 [Example 339, [5-Amino-2-(5-bromo-furan-2-yl)-[1,2,4]triazolo[1,5-a]pyridin-7-yl]-azocan-1-yl-methanone]	1.3	28.5	37			
COc1ccccc1CNC(=O)c1cc(N)n2nc(-c3ccc(Cl)o3)nc2c1 [Example 246, 5-Amino-2-(5-chloro-furan-2-yl)-[1,2,4]triazolo[1,5-a]pyridine-7-carboxylic acid 2-methoxy-benzylamide]	24	3.0	71.7			
CCCNC(=O)c1cc(N)n2nc(-c3ccc(OC)s3)nc2c1 [Example 71, 5-Amino-2-(5-methoxy-thiophen-2-yl)-[1,2,4]triazolo[1,5-a]pyridine-7-carboxylic acid propylamide]	64.9	2.8	180			
COC[C@@H]1CCCN1C(=O)c1cc(N)n2nc(-c3nccs3)nc2c1 [Example 400, (5-Amino-2-thiazol-2-yl-[1,2,4]triazolo[1,5-a]pyridin-7-yl)-(S-2-methoxymethyl-pyrrolidin-1-yl)-methanone]				53.3	83.7	4460
Nc1cc(C(=O)NCc2ccccc2Cl)cc2nc(-c3cc(Br)co3)nn12 [Example 174, 5-Amino-2-(4-bromo-furan-2-yl)-[1,2,4]triazolo[1,5-a]pyridine-7-carboxylic acid 2-chloro-benzylamide]	11.1	1.6	17.5			
Nc1cc(C(=O)N2CC=CC2)cc2nc(-c3ccccn3)nn12 [Example 408, (5-Amino-2-pyridin-2-yl-[1,2,4]triazolo[1,5-a]pyridin-7-yl)-(2,5-dihydro-pyrrol-1-yl)-methanone]				14.9	91.8	1370
Nc1cc(C(=O)NC2CCCCC2)cc2nc(-c3ccoc3)nn12 [Example 154, 5-Amino-2-furan-3-yl-[1,2,4]triazolo[1,5-a]pyridine-7-carboxylic acid cyclohexylamide]	88.1	13.3	1180			
C=CCN(C(=O)c1cc(N)n2nc(-c3ccc(Br)o3)nc2c1)C1CCCC1 [Example 344, 5-Amino-2-(5-bromo-furan-2-yl)-[1,2,4]triazolo[1,5-a]pyridine-7-carboxylic acid allyl-cyclopentyl-amide]	1.6	44.8	71.7			
COc1ccc(CNC(=O)c2cc(N)n3nc(-c4ccc(C)o4)nc3c2)cc1OC [Example 142, 5-Amino-2-(5-methyl-furan-2-yl)-[1,2,4]triazolo[1,5-a]pyridine-7-carboxylic acid 3,4-dimethoxy-benzylamide]	281	14.6	4120			
Nc1cc(C(=O)NC2CCc3ccccc32)cc2nc(-c3nccs3)nn12 (stereo not drawn) [Example 125, 5-Amino-2-thiazol-2-yl-[1,2,4]triazolo[1,5-a]pyridine-7-carboxylic acid indan-1-ylamide]	24.4	10.5	255			
Cc1ccc(-c2nc3cc(C(=O)NCc4ccccc4)cc(N)n3n2)o1 [Example 210, 5-Amino-2-(5-methyl-furan-2-yl)-[1,2,4]triazolo[1,5-a]pyridine-7-carboxylic acid benzylamide]	48.6	6.1	299			
CCN(C(=O)c1cc(N)n2nc(-c3ccc(Cl)o3)nc2c1)C1CCCCC1 [Example 243, 5-Amino-2-(5-chloro-furan-2-yl)-[1,2,4]triazolo[1,5-a]pyridine-7-carboxylic acid cyclohexyl-ethyl-amide]	3.3	28.6	95.6			
CC1CCCC(C)N1C(=O)c1cc(N)n2nc(-c3ccc(Br)o3)nc2c1 (stereo not drawn) [Example 303, [5-Amino-2-(5-bromo-furan-2-yl)-[1,2,4]triazolo[1,5-a]pyridin-7-yl]-(2,6-dimethyl-piperidin-1-yl)-methanone]	149	8.7	1300			
Nc1cc(C(=O)N(CCc2ccccc2)Cc2ccccc2)cc2nc(-c3ccc[nH]3)nn12 [Example 96, 5-Amino-2-(1H-pyrrol-2-yl)-[1,2,4]triazolo[1,5-a]pyridine-7-carboxylic acid benzyl-phenethyl-amide]	217	3.4	729			
Nc1cc(C(=O)N2CCC2)cc2nc(-c3ccc(Cl)o3)nn12 [Example 249, [5-Amino-2-(5-chloro-furan-2-yl)-[1,2,4]triazolo[1,5-a]pyridin-7-yl]-azetidin-1-yl-methanone]	2090	3.0	6210			
COc1ccc(-c2nc3cc(C(=O)NCc4ccccc4Cl)cc(N)n3n2)s1 [Example 56, 5-Amino-2-(5-methoxy-thiophen-2-yl)-[1,2,4]triazolo[1,5-a]pyridine-7-carboxylic acid 2-chloro-benzylamide]	82	1.1	86.3			
Nc1cc(C(=O)N(Cc2ccccc2)Cc2ccccc2)cc2nc(-c3ccc(Br)o3)nn12 [Example 313, 5-Amino-2-(5-bromo-furan-2-yl)-[1,2,4]triazolo[1,5-a]pyridine-7-carboxylic acid dibenzylamide]	1.2	14.8	17.8			
Nc1cc(C(=O)NCc2ccccc2)cc2nc(-c3ccc(Br)o3)nn12 [Example 166, 5-Amino-2-(5-bromo-furan-2-yl)-[1,2,4]triazolo[1,5-a]pyridine-7-carboxylic acid benzylamide]	39.7	5.1	201			
